These results are taken from PMC3115046, “Analyzing Airway Inflammation with Chemical Biology: Dissection of Acidic Mammalian Chitinase Function with a Selective Drug-like Inhibitor” (Chemistry & Biology, 2011).

SMILES strings stand for the structures. Where “and” joins values, the source holds several entries; their conditions need not be identical. Equal values may be shown once.

Test [1] has as its target T1, recombinant mAMCase (Mus musculus, UniProt Q91XA9).
T1 construct: The full-length-coding region of mAMCase was amplified using a lung cDNA template; V5/His; made in house; cell-free, serum-free supernatant used as enzyme source
In words: Recombinant mAMCase (COS-7 cell-free supernatant) chitinase activity assay. Type of test: biochemical. The conditions noted are these: 10 min at 37°C, read-out: IC50 against recombinant mAMCase.
Procedure: Chitinase activity was determined using a fluorescent 4-methylumbelliferyl (4-MU) substrate. […] Chitinase activity is measured relative to the amount of substrate hydrolysed/hr/mL sample.
The full-length-coding region of mAMCase was amplified using a lung cDNA template. The cDNA fragment was directionally cloned into pcDNA3.1 (Invitrogen), to generate a V5/His tagged plasmid. TOP10 competent cells were transformed with the AMCase plasmid and sequence confirmed. Mammalian COS-7 cells were transfected with AMCase-pcDNA3.1 plasmid using Lipofectamine 2000 (Invitrogen). COS-7 cell supernatants were screened for AMCase protein by western blot and chitinase activity. A stable AMCase-expressing cell line was generated using G418 selection medium (RPMI).
Chitinase activity of hAMCase, lung homogenates, or AMCase COS-7 cell supernatants (serum-free) were determined using 4-methylumbelliferyl-β-D-N,N′,N″-triacetylchitotrioside and 4-methylumbelliferyl-β-D-N,N′,N″-triacetylchitobioside, as described. Samples were incubated with substrate (0.022 mM in 100 mM citric acid, 200 mM sodium phosphate buffer [pH 5.2]) in a final volume of 50 μL. […] Liberated 4-methlyumberlliferone was quantified using a microplate fluorometer (excitation 360 nm/emission 440 nm). Ki and IC50 values were determined in the presence of different concentrations of inhibitor. Experiments were performed in duplicate or triplicate.

Test [2] has as its system ventilatory function (penH). Kind of test: Ventilatory function (penH) after methacholine, whole-body plethysmography. Type of test: in vivo, BALB/c mice. On the procedure: All experiments used female BALB/c mice, 6- to 8-weeks-old. Mice were kept in individually ventilated cages and all experiments were conducted under UK Home Office guidelines. Mice were sensitized (day 0) and boosted (day 14) i.p. with 20 μg OVA (Grade V, Sigma) adsorbed to 9% potassium alum. Mice were either challenged on day 28 and 30 with 50 μg OVA or PBS by the intratracheal route or were challenged with 1% OVA or PBS by aerosol for 30 min on day 28 to day 30. […] Necropsies were performed 24 hr after the final airway challenge. […] Briefly, conscious mice were placed in individual chambers for a 10 min acclimatization period. Spontaneous breathing patterns in mice relate to changes in chamber air pressure, which are measured by a transducer attached to the chamber wall. Differences in the rates of pressure change during peak inspiration and peak expiration and the timing of expiration are used to calculate penH according to the following equation; penH = ((expiratory time/relaxation time) – 1) × (peak expiratory flow (mL/s)/peak inspiratory flow (ml/s)). PenH measurements are not used as a quantitative measurement that relates to airway size and rather reflect changes to ventilation following bronchoconstriction. Baseline measurements of penH were made following an aerosol of PBS. […]

Test [3] deals with lung chitinase activity. Kind of test: Chitinase activity in lung homogenates, OVA allergic inflammation model. It is filed as in vivo, BALB/c mice. Here is the method: Samples were incubated with substrate (0.022 mM in 100 mM citric acid, 200 mM sodium phosphate buffer [pH 5.2]) in a final volume of 50 μL. After a 10 min incubation at 37°C, the reaction was stopped with the addition of 500 μl sodium carbonate buffer (0.5 M sodium carbonate and 0.5 M sodium bicarbonate [pH 10.6]). Liberated 4-[…] was quantified using a microplate fluorometer (excitation 360 nm/emission 440 nm). Ki and IC50 values were determined in the presence of different concentrations of inhibitor. Experiments were performed in duplicate or triplicate. All experiments used female BALB/c mice, 6- to 8-weeks-old. Mice were kept in individually ventilated cages and all experiments were conducted under UK Home Office guidelines. Mice were sensitized (day 0) and boosted (day 14) i.p. with 20 μg OVA (Grade V, Sigma) adsorbed to 9% potassium alum. Mice were either challenged on day 28 and 30 with 50 μg OVA or PBS by the intratracheal route or were challenged with 1% OVA or PBS by aerosol for 30 min on day 28 to day 30. […] Necropsies were performed 24 hr after the final airway challenge. Protein from dissected lung was homogenized (TissueLyser, QIAGEN) in lysis buffer containing protease cocktail inhibitor (Sigma). Samples were incubated for 20 min on ice, prior to centrifugation 10,000 × g to removed cell debris. Protein amounts were quantified with Coomassie (Bradford) Reagent. […]

The subject of test [4] is lung tissue gene expression. In words: Lung mRNA expression by quantitative RT-PCR, OVA model. Type of test: in vivo, BALB/c mice. Here is the method:
All experiments used female BALB/c mice, 6- to 8-weeks-old. Mice were kept in individually ventilated cages and all experiments were conducted under UK Home Office guidelines. Mice were sensitized (day 0) and boosted (day 14) i.p. with 20 μg OVA (Grade V, Sigma) adsorbed to 9% potassium alum. Mice were either challenged on day 28 and 30 with 50 μg OVA or PBS by the intratracheal route or were challenged with 1% OVA or PBS by aerosol for 30 min on day 28 to day 30. […] Necropsies were performed 24 hr after the final airway challenge. One part of the left lobe of the lung, removed following BALF, was stored in RNAlater (Ambion) at 4°C for up to 4 weeks. Lung samples were homogenized in RLT lysis buffer using TissueLyser (QIAGEN) and total RNA extracted using RNeasy mini spin columns (QIAGEN). RNA (1 μg) was used for synthesis of cDNA using Moloney murine leukemia virus reverse transcriptase. Relative quantification of genes was carried out by RT-PCR using the Roche Lightcycler, as previously described ([Nair et al., 2005]). PCR amplication was analyzed using 2nd derivative Maximum alogarithm (LightCycler 480 SW 1.5, Roche) and the expression of the gene of interest was normalized to the housekeeping gene, GAPDH. Primer sequences used were as follows: GAPDH-For [NT], Rev [NT]1-For [NT], Rev [NT] Collagen I-For [NT], Rev [NT]-1α-For [NT], Rev […]-12-For [NT], Rev [NT]; and TIMP-1-For [NT], Rev [NT]

Where [5] appears, read: 1 and 5 mg/kg i.p., allergic animals.

T1 sequence (Q91XA9 22-473): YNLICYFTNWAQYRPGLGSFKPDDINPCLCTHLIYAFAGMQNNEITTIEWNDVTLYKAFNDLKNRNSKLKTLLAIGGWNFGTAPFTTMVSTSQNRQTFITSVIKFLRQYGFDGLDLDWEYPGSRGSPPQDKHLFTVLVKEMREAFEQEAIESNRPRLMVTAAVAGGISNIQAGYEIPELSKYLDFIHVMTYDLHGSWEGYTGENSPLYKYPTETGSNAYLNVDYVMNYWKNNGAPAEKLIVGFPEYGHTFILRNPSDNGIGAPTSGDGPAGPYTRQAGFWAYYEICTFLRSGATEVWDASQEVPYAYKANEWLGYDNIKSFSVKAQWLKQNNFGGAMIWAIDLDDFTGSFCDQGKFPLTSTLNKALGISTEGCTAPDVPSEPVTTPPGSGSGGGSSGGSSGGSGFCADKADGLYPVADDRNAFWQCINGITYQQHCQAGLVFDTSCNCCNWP

In the case of `Cn1cnc2c1c(=O)n(CCCn1c(=O)c3[nH]cnc3n(C)c1=O)c(=O)n2C` [bisdionin F], the IC50 in test [1] is 2210 nM and 2200 nM. Also, the “penH in PBS-challenged animals” value in test [2] (5 mg/kg, data not shown) is on record as “no effect”. In test [2] (1 and 5 mg/kg i.p., highest concentration of methacholine), the “penH in allergic mice” value was “significantly reduced”. Moreover, in test [3] (5 mg/kg i.p., control PBS and OVA-challenged mice, about 24 hr after last challenge), the “chitinase activity in the lungs” value is given as “significantly reduced”. Besides, the “lowest dose at which any chitinase inhibition was observed” value in test [3] (i.p., allergic mice) was determined as 1 mg/kg. The “MIP-1α mRNA expression in lung” value in test [4] (5 mg/kg i.p., OVA-challenged animals) is “enhanced”. In addition, in test [4] (setting [5]), the “MMP-12 mRNA expression in lung” value was “significantly increased”, the “TIMP-1 mRNA expression in lung” value is “downregulated”, the “Ym1 mRNA expression in lung” value is given as “significantly increased” and the “procollagen I mRNA expression in lung” value is listed as “significantly increased”. Further, the “enhancement of the ratio of MMP:TIMP expression” value in test [4] (MMP-12:TIMP-1 mRNA, allergic animals) is listed as 2.5 fold.

What is called IC50 is the concentration that gives 50% inhibition.
